According to ChEMBL document CHEMBL1201862, “PubChem BioAssay data set” (2004):
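How tested: cells in 96-well plates exposed to compound for 48 hours at five concentrations. Abbreviation: GI50, concentration required for 50% inhibition of growth.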 Activity calls are given as the source filed them. Rule as the data show it: active = GI50 up to about 1.1 µM and inactive = higher.

What was measured:
Assay in all cases: NCI tumour cell line growth inhibition, 48 h
[1] = test system: 786-0
[2] = test system: A549
[3] = test system: ACHN
[4] = test system: CAKI-1
[5] = test system: CCRF-CEM
[6] = test system: COLO 205
[7] = test system: DU-145
[8] = test system: EKVX
[9] = test system: HCC 2998
[10] = test system: HCT-116
[11] = test system: HCT-15
[12] = test system: HL-60
[13] = test system: HOP-62
[14] = test system: HOP-92
[15] = test system: HT-29
[16] = test system: Hs-578T
[17] = test system: IGROV-1
[18] = test system: K562
[19] = test system: KM12
[20] = test system: LOX IMVI
[21] = test system: M14
[22] = test system: MCF7
[23] = test system: MDA-MB-231
[24] = test system: MDA-MB-435
[25] = test system: MDA-N
[26] = test system: MOLT-4
[27] = test system: NCI-H226
[28] = test system: NCI-H23
[29] = test system: NCI-H460
[30] = test system: NCI-H522
[31] = test system: NCI/ADR-RES
[32] = test system: OVCAR-3
[33] = test system: OVCAR-4
[34] = test system: OVCAR-5
[35] = test system: OVCAR-8
[36] = test system: PC-3
[37] = test system: RPMI-8226
[38] = test system: RXF 393
[39] = test system: SF-268
[40] = test system: SF-295
[41] = test system: SF-539
[42] = test system: SK-MEL-28
[43] = test system: SK-MEL-2
[44] = test system: SK-MEL-5
[45] = test system: SK-OV-3
[46] = test system: SN12C
[47] = test system: SNB-19
[48] = test system: SNB-75
[49] = test system: SR
[50] = test system: SW-620
[51] = test system: T47D
[52] = test system: TK-10
[53] = test system: U-251
[54] = test system: UACC-257
[55] = test system: UACC-62
[56] = test system: UO-31
[57] = test system: A498
[58] = test system: Malme-3M

CC(C)(C)c1cc([N+](=O)[O-])cc([N+](=O)[O-])c1O [DINOTERB]
GI50 [1]: > 10 µM (inactive)
GI50 [2]: 7.64 µM (inactive)
GI50 [3]: > 10 µM (inactive)
GI50 [4]: 5.6 µM (inactive)
GI50 [5]: > 10 µM (inactive)
GI50 [6]: > 10 µM (inactive)
GI50 [7]: 9.59 µM (inactive)
GI50 [8]: 9.86 µM (inactive)
GI50 [9]: > 10 µM (inactive)
GI50 [10]: > 10 µM (inactive)
GI50 [11]: > 10 µM
GI50 [12]: > 10 µM (inactive)
GI50 [13]: > 10 µM (inactive)
GI50 [14]: 2.77 µM (inactive)
GI50 [15]: > 10 µM (inactive)
GI50 [16]: 8.71 µM (inactive)
GI50 [17]: > 10 µM (inactive)
GI50 [18]: 9.29 µM (inactive)
GI50 [19]: > 10 µM (inactive)
GI50 [20]: > 10 µM (inactive)
GI50 [21]: > 10 µM (inactive)
GI50 [22]: > 10 µM (inactive)
GI50 [23]: > 10 µM (inactive)
GI50 [24]: > 10 µM (inactive)
GI50 [25]: > 10 µM (inactive)
GI50 [26]: > 10 µM (inactive)
GI50 [27]: > 10 µM (inactive)
GI50 [28]: > 10 µM (inactive)
GI50 [29]: 7.98 µM (inactive)
GI50 [30]: > 10 µM (inactive)
GI50 [31]: > 10 µM (inactive)
GI50 [32]: > 10 µM (inactive)
GI50 [33]: > 10 µM (inactive)
GI50 [34]: > 10 µM (inactive)
GI50 [35]: > 10 µM (inactive)
GI50 [36]: 5.52 µM (inactive)
GI50 [37]: 4.12 µM (inactive)
GI50 [38]: > 10 µM (inactive)
GI50 [39]: > 10 µM (inactive)
GI50 [40]: > 10 µM (inactive)
GI50 [41]: > 10 µM (inactive)
GI50 [42]: > 10 µM (inactive)
GI50 [43]: > 10 µM (inactive)
GI50 [44]: 6.47 µM (inactive)
GI50 [45]: > 10 µM (inactive)
GI50 [46]: > 10 µM (inactive)
GI50 [47]: > 10 µM (inactive)
GI50 [48]: > 10 µM (inactive)
GI50 [49]: > 10 µM (inactive)
GI50 [50]: > 10 µM (inactive)
GI50 [51]: > 10 µM (inactive)
GI50 [52]: > 10 µM (inactive)
GI50 [53]: > 10 µM (inactive)
GI50 [54]: 8.57 µM (inactive)
GI50 [55]: > 10 µM (inactive)
GI50 [56]: > 10 µM (inactive)

CSc1cc(Cl)c(C)cc1S(=O)(=O)NC(=O)NNc1ccc(F)cc1
GI50 [1]: > 100 µM (inactive)
GI50 [57]: > 100 µM (inactive)
GI50 [2]: > 100 µM (inactive)
GI50 [3]: 66.8 µM (inactive)
GI50 [4]: > 100 µM (inactive)
GI50 [6]: > 100 µM (inactive)
GI50 [7]: > 100 µM (inactive)
GI50 [8]: > 100 µM (inactive)
GI50 [9]: 30 µM (inactive)
GI50 [10]: > 100 µM (inactive)
GI50 [11]: > 100 µM
GI50 [13]: > 100 µM (inactive)
GI50 [15]: > 100 µM (inactive)
GI50 [16]: > 100 µM (inactive)
GI50 [17]: > 100 µM (inactive)
GI50 [18]: > 100 µM (inactive)
GI50 [19]: > 100 µM (inactive)
GI50 [20]: > 100 µM (inactive)
GI50 [21]: > 100 µM (inactive)
GI50 [22]: > 100 µM (inactive)
GI50 [23]: > 100 µM (inactive)
GI50 [24]: > 100 µM (inactive)
GI50 [25]: > 100 µM (inactive)
GI50 [26]: > 100 µM (inactive)
GI50 [58]: > 100 µM (inactive)
GI50 [27]: > 100 µM (inactive)
GI50 [29]: > 100 µM (inactive)
GI50 [30]: > 100 µM (inactive)
GI50 [31]: > 100 µM (inactive)
GI50 [32]: > 100 µM (inactive)
GI50 [33]: > 100 µM (inactive)
GI50 [34]: > 100 µM (inactive)
GI50 [35]: > 100 µM (inactive)
GI50 [36]: > 100 µM (inactive)
GI50 [38]: > 100 µM (inactive)
GI50 [39]: > 100 µM (inactive)
GI50 [40]: > 100 µM (inactive)
GI50 [41]: > 100 µM (inactive)
GI50 [42]: > 100 µM (inactive)
GI50 [43]: > 100 µM (inactive)
GI50 [44]: > 100 µM (inactive)
GI50 [45]: > 100 µM (inactive)
GI50 [46]: > 100 µM (inactive)
GI50 [47]: > 100 µM (inactive)
GI50 [48]: > 100 µM (inactive)
GI50 [49]: > 100 µM (inactive)
GI50 [50]: > 100 µM (inactive)
GI50 [51]: > 100 µM (inactive)
GI50 [53]: > 100 µM (inactive)
